Patent US8663646B2, “P53 peptide vaccine” (priority 2007, dated 2014)
Where no end group is shown, it is not given here.

Key:
HLA-A*0301 [1] = biological target: T1, HLA-A*0301 (Homo sapiens, UniProt P04439); assay: Competition based cellular binding assay, HLA-A*0301 (B-cell line EKR); conditions: for HLA binding Affinity (Table 5): HLA type A3; for IC50: read-out: Peptide Binding Affinity
T1 construct: B-cell lines used are: CAA (A*0101), EKR (A*0301), BVR (A*1101), VIJF (A*2401); endogenous in cells; host or cells: B-cell line EKR

HLA-A*0301 [2] = biological target: T1, HLA-A*0301; assay: Stability of peptide-HLA complex, binding at 4° C. and 20° C., HLA-A*0301; conditions: for HLA binding Stability (Table 5): HLA type A3; for Peptide Binding Stability: HLA-A*0301, IC50 at 20° C. vs 4° C.
Description: (§1) Stability of other peptide-HLA complexes was preferably determined as follows. […] Peptides of >50% of the initial complexes was lost within 2 hours were considered unstable. […] The rest was designated as unstable peptide binding.
(§2) Peptides 8-11 residues in length were selected based on typical anchor residues for HLA-A*0101, A*0301, A*1101 and HLA-A*2401 (Rammensee H G et al). The capacity of peptides to bind was tested in a competition based cellular binding assay as previously described (van der Burg S H et al 1995). FL-labeled reference peptides were synthesized as Cys-derivative (van der Burg S H et al 1995). Fluorescence labeled reference peptides used were: YLEPAC(FL)AK (SEQ ID NO: 87) (HLA-A*0101) and KVFPC(FL)ALINK (SEQ ID NO: 88) (HLA-A*1101) (Sette A et al), KVFPC(FL)ALINK (SEQ ID NO: 89) (HLAA*0301) (van der Burg S H et al 1995) and RYLKC(FL)QQLL (SEQ ID NO: 90) (A*2401) (Dai L C et al). B-cell lines used are: CAA (A*0101), EKR (A*0301), BVR (A*1101), VIJF (A*2401). The relative binding capacity of the peptides is expressed as the peptide concentration to inhibit 50% (1050) of the binding of the reference peptide. […] Peptide stabilization for HLA-A*0201 was performed as previously described (van der Burg S H et al, 1996). Peptides of >50% of the initial complexes was lost within 2 hours were considered unstable. Stability of other peptide-HLA complexes was determined as follows. Peptide binding was performed at 4° C. and 20° C. and 1050 were determined. […] The rest was designated as unstable peptide binding.

HLA-A*1101 = biological target: T2, HLA-A*1101 (Homo sapiens, UniProt P04439, A114D/D185E/E176A/F33Y/L180Q/S129P/T187R); assay: Stability of peptide-HLA complex, binding at 4° C. and 20° C., HLA-A*1101; conditions: for HLA binding Stability (Table 5): HLA type A11; for Peptide Binding Stability: HLA-A*1101, IC50 at 20° C. vs 4° C.
T2 construct: B-cell lines used are: CAA (A*0101), EKR (A*0301), BVR (A*1101), VIJF (A*2401); endogenous in cells; host or cells: B-cell line BVR
Description: as §1, §2

Row | HLA binding Affinity (Table 5) (HLA-A*0301 [1]) | Peptide Binding Affinity (HLA-A*0301 [1]; HLA-A*0301, IC50 category) | IC50 (HLA-A*0301 [1]; HLA-A*0301, IC50 category) | Compound | HLA binding Stability (Table 5) (HLA-A*0301 [2]) | Peptide Binding Stability (HLA-A*0301 [2]) | HLA binding Stability (Table 5) (HLA-A*1101) | Peptide Binding Stability (HLA-A*1101)
1 | high | high | – | GSRAHSSHLK [p53 361-370] | + (Stable peptides displayed IC50 at 20 °C that deviated <2 times of the IC50 at 4° C.) | + (Stable peptides displayed IC50 at 20 °C that deviated <2 times of the IC50 at 4° C.) | – | –
2 | int | – | 5 to 15 µM | RAHSSHLKSK [p53 363-372] | − (The rest was designated as unstable peptide binding.) | +/− (Peptides that displayed IC50 at 20 °C of more than twice the IC50 at 4 °C but IC50 < 15 μM were considered to bind with intermediate stability.) | – | –
3 | int | – | 5 to 15 µM | RVRAMAIY [p53 156-163] | − (The rest was designated as unstable peptide binding.) | − (The rest was designated as unstable peptide binding.) | – | –
4 | – | – | – | C[C@@H](O)[C@H](NC(=O)[C@@H](N)CCCCN)C(=O)N[C@@H](Cc1ccc(O)cc1)C(=O)N[C@@H](CCC(N)=O)C(=O)NCC(=O)N[C@@H](CO)C(=O)N[C@@H](Cc1ccc(O)cc1)C(=O)NCC(=O)N[C@@H](Cc1ccccc1)C(=O)N[C@@H](CCCNC(=N)N)C(=O)O [p53 101-110] | +/− (Peptides that displayed IC50 at 20 °C of more than twice the IC50 at 4 °C but IC50 < 15 μM were considered to bind with intermediate stability.) | +/− (Peptides that displayed IC50 at 20 °C of more than twice the IC50 at 4 °C but IC50 < 15 μM were considered to bind with intermediate stability.) | +/− (Peptides that displayed IC50 at 20 °C of more than twice the IC50 at 4 °C but IC50 < 15 μM were considered to bind with intermediate stability.) | +/− (Peptides that displayed IC50 at 20 °C of more than twice the IC50 at 4 °C but IC50 < 15 μM were considered to bind with intermediate stability.)
5 | – | – | – | CC(C)C[C@H](NC(=O)[C@H](C)NC(=O)[C@@H]1CCCN1C(=O)[C@H](CO)NC(=O)[C@H](Cc1ccc(O)cc1)NC(=O)[C@@H](NC(=O)[C@@H](N)CS)[C@@H](C)O)C(=O)N[C@@H](CC(N)=O)C(=O)N[C@@H](CCCCN)C(=O)O [p53 124-132] | – | + (Stable peptides displayed IC50 at 20 °C that deviated <2 times of the IC50 at 4° C.) | – | + (Stable peptides displayed IC50 at 20 °C that deviated <2 times of the IC50 at 4° C.)
6 | – | – | – | CC[C@H](C)[C@H](NC(=O)[C@H](C)NC(=O)[C@H](CCSC)NC(=O)[C@H](C)NC(=O)[C@H](CCCNC(=N)N)NC(=O)[C@@H](NC(=O)[C@@H](N)CCCNC(=N)N)C(C)C)C(=O)N[C@@H](Cc1ccc(O)cc1)C(=O)N[C@@H](CCCCN)C(=O)O [p53 156-164] | + (Stable peptides displayed IC50 at 20 °C that deviated <2 times of the IC50 at 4° C.) | + (Stable peptides displayed IC50 at 20 °C that deviated <2 times of the IC50 at 4° C.) | + (Stable peptides displayed IC50 at 20 °C that deviated <2 times of the IC50 at 4° C.) | + (Stable peptides displayed IC50 at 20 °C that deviated <2 times of the IC50 at 4° C.)
7 | – | – | 5 to 15 µM | CC(C)C[C@H](NC(=O)[C@H](C)NC(=O)[C@@H]1CCCN1C(=O)[C@H](CO)NC(=O)[C@H](Cc1ccc(O)cc1)NC(=O)[C@@H](NC(=O)[C@H](CS)NC(=O)[C@@H](NC(=O)[C@@H](N)C(C)C)[C@@H](C)O)[C@@H](C)O)C(=O)N[C@@H](CC(N)=O)C(=O)N[C@@H](CCCCN)C(=O)O [p53 122-132] | – | + (Stable peptides displayed IC50 at 20 °C that deviated <2 times of the IC50 at 4° C.) | – | –
8 | – | – | – | CC[C@H](C)[C@H](NC(=O)[C@H](C)NC(=O)[C@H](CCSC)NC(=O)[C@H](C)NC(=O)[C@H](CCCNC(=N)N)NC(=O)[C@@H](NC(=O)[C@H](CCCNC(=N)N)NC(=O)[C@@H](NC(=O)CN)[C@@H](C)O)C(C)C)C(=O)N[C@@H](Cc1ccc(O)cc1)C(=O)O [p53 154-163] | − (The rest was designated as unstable peptide binding.) | − (The rest was designated as unstable peptide binding.) | – | –
9 | – | – | – | CSCC[C@H](NC(=O)[C@H](CC(C)C)NC(=O)[C@H](CCCCN)NC(=O)[C@H](CCCCN)NC(=O)[C@H](Cc1c[nH]cn1)NC(=O)[C@H](CCCNC(=N)N)NC(=O)[C@H](CO)NC(=O)[C@@H](NC(=O)[C@@H](N)CO)[C@@H](C)O)C(=O)N[C@@H](Cc1ccccc1)C(=O)N[C@@H](CCCCN)C(=O)O [p53 376-386] | − (The rest was designated as unstable peptide binding.) | +/− (Peptides that displayed IC50 at 20 °C of more than twice the IC50 at 4 °C but IC50 < 15 μM were considered to bind with intermediate stability.) | – | –
10 | – | – | – | CC(C)C[C@H](NC(=O)[C@H](Cc1c[nH]cn1)NC(=O)[C@H](CO)NC(=O)[C@H](CO)NC(=O)[C@H](Cc1c[nH]cn1)NC(=O)[C@H](C)NC(=O)[C@@H](N)CCCNC(=N)N)C(=O)N[C@@H](CCCCN)C(=O)N[C@@H](CO)C(=O)N[C@@H](CCCCN)C(=O)N[C@@H](CCCCN)C(=O)O [p53 363-373] | + (Stable peptides displayed IC50 at 20 °C that deviated <2 times of the IC50 at 4° C.) | + (Stable peptides displayed IC50 at 20 °C that deviated <2 times of the IC50 at 4° C.) | – | –
11 | int | – | 5 to 15 µM | GGSRAHSSHLK [p53 360-370] | − (The rest was designated as unstable peptide binding.) | − (The rest was designated as unstable peptide binding.) | – | –
12 | – | – | – | CC(C)[C@H](N)C(=O)N[C@H](C(=O)N[C@@H](CCCNC(=N)N)C(=O)N[C@@H](CCCNC(=N)N)C(=O)N[C@@H](CS)C(=O)N1CCC[C@H]1C(=O)N[C@@H](Cc1c[nH]cn1)C(=O)N[C@@H](Cc1c[nH]cn1)C(=O)N[C@@H](CCC(=O)O)C(=O)N[C@@H](CCCNC(=N)N)C(=O)O)C(C)C [p53 172-181] | + (Stable peptides displayed IC50 at 20 °C that deviated <2 times of the IC50 at 4° C.) | + (Stable peptides displayed IC50 at 20 °C that deviated <2 times of the IC50 at 4° C.) | – | –
13 | – | – | – | CC[C@H](C)[C@H](NC(=O)[C@H](C)NC(=O)[C@H](CCSC)NC(=O)[C@H](C)NC(=O)[C@H](CCCNC(=N)N)NC(=O)[C@@H](NC(=O)[C@H](CCCNC(=N)N)NC(=O)[C@@H](NC(=O)CN)[C@@H](C)O)C(C)C)C(=O)N[C@@H](Cc1ccc(O)cc1)C(=O)N[C@@H](CCCCN)C(=O)O [p53 154-164] | + (Stable peptides displayed IC50 at 20 °C that deviated <2 times of the IC50 at 4° C.) | + (Stable peptides displayed IC50 at 20 °C that deviated <2 times of the IC50 at 4° C.) | – | –
